US9951467B2, “Bacteriostatically treating method” (JNC CORPORATION, priority 2009, dated 2018)

Columns and labels:
S. aureus = assay: Antibacterial test on fiber samples immersed in polycationic polypeptide aqueous solution, bactericidal activity value (L); assay type: cell-based, Staphylococcus aureus
From the text: (§1) Here, the bactericidal activity value (L) is defined by the following equation (for details, see the Approval Standard for Antibacterial and Deodorant Textile Products set forth by the Japan Textile Evaluation Technology Council (JTETC)). When this value (L) is ≥0, the textile product is considered to have an antibacterial effect, and it becomes eligible to be approved as a bacteriostatically treated textile product (with SEK Mark).
(§2) L (bactericidal activity value)=(Ma−Mc)
(§3) Ma: Average common logarithm value of the viable cell count or the ATP amount, which was measured for three samples immediately after the inoculation thereof onto a standard cloth.
(§4) Mc: Average common logarithm value of the viable cell count or the ATP amount, which was measured for three samples after 18 hours of culturing on an antibacterially treated cloth.
(§5) Threads, each of which was cut into 0.4 g in weight, were used as the fiber samples. Into a polycationic polypeptide aqueous solution of a prescribed concentration which was heated to a prescribed temperature (25, 50 or 75° C.), the samples were immersed for a prescribed period of time. The followings were used as the polycationic polypeptide.
(§6) Then, the fiber samples were washed by a simple method which was modified from the washing method according to JIS L-0217 103 (“Antimicrobial Agent of SENKA Corporation”; Everything about antimicrobial agents, p. 595-598, 1997, Sen-i Co., Ltd.), and the thus washed samples were dried in the air. The washing method was carried out by the following steps.
(§7) (1) Water having a temperature of 40° C. is filled into the washer water tank up to the highest line for the water level. To this water, “JAFET standard detergent (polyoxyethylene alkyl ether)” is added at a ratio of 40 mL of the detergent to 30 L of water to obtain washing solution.
(§8) (2) The fiber samples are placed into the washing solution in such a manner that the bath ratio (the weight ratio of the fibers and the washing solution at the time of washing of the fibers after the immersion) becomes 1:30, and the washing machine is operated for 25 minutes.
(§9) (3) The fiber samples are dehydrated by a dehydrator. The dehydration is carried out for 7 to 8 minutes.
(§10) (4) The washing solution is replaced with fresh water at room temperature, and rinsing and washing are performed in the filled water for 4 minutes at the same bath ratio.
(§11) (5) The fiber samples are dehydrated by a dehydrator. The dehydration is carried out for 7 to 8 minutes.
(§12) (6) Rinsing and washing are performed with running water for 2 minutes.
(§13) (7) Considering the above (1) to (6) as 5 washings, these steps are repeated twice to have the fiber samples be “washed 10 times”.
(§14) (8) The fiber samples are dehydrated by a dehydrator.
(§15) A bacterial suspension which was cultured in normal broth at 30° C. for 18 hours was mixed and diluted to prepare a diluted bacterial suspension having a concentration of 10^6 cells/mL. Placed into a vial was 0.4 g of fiber sample which was not washed or washed 10 times. Thereto inoculated was 400 μL of the diluted bacterial suspension, which was then allowed to soak into the sample, and the sample was incubated at 37° C. After 18 hours, 20 mL of physiological saline was added to the vial and the resultant was stirred using a mixer (5 seconds×5 times) to suspend the bacterial cells. The thus obtained suspension was diluted as appropriate, and the number of bacterium was counted to calculate the bactericidal activity value (L) based on the aforementioned equation. Here, the tested bacteria were E. coli and S. aureus.

E. coli = assay: as above; assay type: cell-based, Escherichia coli
From the text: as §1, §2, §3, §4, §5, §6, §7, §8, §9, §10, §11, §12, §13, §14, §15

[1] = Acryl 100% thread, immersion 25° C., 2 hours
[2] = Acryl 100% thread, immersion 25° C., 3 hours
[3] = Acryl 100% thread, immersion 25° C., 24 hours
[4] = Cotton 100% thread, immersion 50° C., 2 hours
[5] = Cotton 100% thread, immersion 50° C., 3 hours
[6] = Cotton 100% thread, immersion 50° C., 24 hours
[7] = Cotton 100% thread, immersion 75° C., 2 hours
[8] = Cotton 100% thread, immersion 75° C., 3 hours
[9] = Cotton 100% thread, immersion 75° C., 24 hours
[10] = Hemp 100% thread, immersion 25° C., 2 hours
[11] = Hemp 100% thread, immersion 25° C., 3 hours
[12] = Hemp 100% thread, immersion 25° C., 24 hours
[13] = Nylon 100% thread, immersion 25° C., 2 hours
[14] = Nylon 100% thread, immersion 25° C., 3 hours
[15] = Nylon 100% thread, immersion 25° C., 24 hours
[16] = Polyester 100% thread, immersion 25° C., 2 hours
[17] = Polyester 100% thread, immersion 25° C., 3 hours
[18] = Polyester 100% thread, immersion 25° C., 24 hours
[19] = Rayon 100% thread, immersion 25° C., 2 hours
[20] = Rayon 100% thread, immersion 25° C., 3 hours
[21] = Rayon 100% thread, immersion 25° C., 24 hours
[22] = Wool 100% thread, immersion 50° C., 2 hours
[23] = Wool 100% thread, immersion 50° C., 3 hours
[24] = Wool 100% thread, immersion 50° C., 24 hours
[25] = Wool 100% thread, immersion 75° C., 2 hours
[26] = Wool 100% thread, immersion 75° C., 3 hours
[27] = Wool 100% thread, immersion 75° C., 24 hours
[28] = cotton thread and wool, immersion 50° C., 2 hours or more (text summary of Table 1)
[29] = threads of various materials, immersion 25° C., 2 hours or more (text summary of Table 2)

ϵ-polylysine [ε-polylysine]
250 ppm: ε-polylysine concentration at which L ≥ 0 was attained, S. aureus (S. aureus; [3]) | ε-polylysine concentration at which L ≥ 0 was attained, S. aureus (S. aureus; [12]) | ε-polylysine concentration at which L ≥ 0 was attained, S. aureus (S. aureus; [15]) | ε-polylysine concentration at which L ≥ 0 was attained, S. aureus (S. aureus; [18]) | ε-polylysine concentration at which L ≥ 0 was attained, S. aureus (S. aureus; [21]) | ε-polylysine concentration at which L ≥ 0 was attained, E. coli (E. coli; [3]) | ε-polylysine concentration at which L ≥ 0 was attained, E. coli (E. coli; [15]) | ε-polylysine concentration at which L ≥ 0 was attained, E. coli (E. coli; [21])
2,500 ppm: ε-polylysine concentration at which L ≥ 0 was attained, E. coli (E. coli; [4]) | ε-polylysine concentration at which L ≥ 0 was attained, E. coli (E. coli; [5]) | ε-polylysine concentration at which L ≥ 0 was attained, E. coli (E. coli; [6]) | ε-polylysine concentration at which L ≥ 0 was attained, E. coli (E. coli; [7]) | ε-polylysine concentration at which L ≥ 0 was attained, E. coli (E. coli; [8]) | ε-polylysine concentration at which L ≥ 0 was attained, E. coli (E. coli; [9]) | ε-polylysine concentration at which L ≥ 0 was attained, E. coli (E. coli; [22]) | ε-polylysine concentration at which L ≥ 0 was attained, E. coli (E. coli; [23]) | ε-polylysine concentration at which L ≥ 0 was attained, E. coli (E. coli; [24]) | ε-polylysine concentration at which L ≥ 0 was attained, E. coli (E. coli; [25]) | ε-polylysine concentration at which L ≥ 0 was attained, E. coli (E. coli; [26]) | ε-polylysine concentration at which L ≥ 0 was attained, E. coli (E. coli; [27]) | concentration of ϵ-polylysine aqueous solution at which bacteriostatic effect against E. coli was attained (E. coli; [28])
500 ppm: ε-polylysine concentration at which L ≥ 0 was attained, S. aureus (S. aureus; [1]) | ε-polylysine concentration at which L ≥ 0 was attained, S. aureus (S. aureus; [2]) | ε-polylysine concentration at which L ≥ 0 was attained, S. aureus (S. aureus; [4]) | ε-polylysine concentration at which L ≥ 0 was attained, S. aureus (S. aureus; [5]) | ε-polylysine concentration at which L ≥ 0 was attained, S. aureus (S. aureus; [6]) | ε-polylysine concentration at which L ≥ 0 was attained, S. aureus (S. aureus; [7]) | ε-polylysine concentration at which L ≥ 0 was attained, S. aureus (S. aureus; [8]) | ε-polylysine concentration at which L ≥ 0 was attained, S. aureus (S. aureus; [9]) | ε-polylysine concentration at which L ≥ 0 was attained, S. aureus (S. aureus; [10]) | ε-polylysine concentration at which L ≥ 0 was attained, S. aureus (S. aureus; [11]) | ε-polylysine concentration at which L ≥ 0 was attained, S. aureus (S. aureus; [13]) | ε-polylysine concentration at which L ≥ 0 was attained, S. aureus (S. aureus; [14]) | ε-polylysine concentration at which L ≥ 0 was attained, S. aureus (S. aureus; [16]) | ε-polylysine concentration at which L ≥ 0 was attained, S. aureus (S. aureus; [17]) | ε-polylysine concentration at which L ≥ 0 was attained, S. aureus (S. aureus; [19]) | ε-polylysine concentration at which L ≥ 0 was attained, S. aureus (S. aureus; [20]) | ε-polylysine concentration at which L ≥ 0 was attained, S. aureus (S. aureus; [22]) | ε-polylysine concentration at which L ≥ 0 was attained, S. aureus (S. aureus; [23]) | ε-polylysine concentration at which L ≥ 0 was attained, S. aureus (S. aureus; [24]) | ε-polylysine concentration at which L ≥ 0 was attained, S. aureus (S. aureus; [25]) | ε-polylysine concentration at which L ≥ 0 was attained, S. aureus (S. aureus; [26]) | ε-polylysine concentration at which L ≥ 0 was attained, S. aureus (S. aureus; [27]) | concentration of ϵ-polylysine aqueous solution at which bacteriostatic effect against S. aureus was attained (S. aureus; [28]) | concentration of ϵ-polylysine aqueous solution at which bacteriostatic effect against S. aureus was attained (S. aureus; [29]) | ε-polylysine concentration at which L ≥ 0 was attained, E. coli (E. coli; [1]) | ε-polylysine concentration at which L ≥ 0 was attained, E. coli (E. coli; [2]) | ε-polylysine concentration at which L ≥ 0 was attained, E. coli (E. coli; [10]) | ε-polylysine concentration at which L ≥ 0 was attained, E. coli (E. coli; [11]) | ε-polylysine concentration at which L ≥ 0 was attained, E. coli (E. coli; [13]) | ε-polylysine concentration at which L ≥ 0 was attained, E. coli (E. coli; [14]) | ε-polylysine concentration at which L ≥ 0 was attained, E. coli (E. coli; [16]) | ε-polylysine concentration at which L ≥ 0 was attained, E. coli (E. coli; [17]) | ε-polylysine concentration at which L ≥ 0 was attained, E. coli (E. coli; [19]) | ε-polylysine concentration at which L ≥ 0 was attained, E. coli (E. coli; [20]) | concentration of ϵ-polylysine aqueous solution at which bacteriostatic effect against E. coli was attained (E. coli; [29])
800 ppm: ε-polylysine concentration at which L ≥ 0 was attained, E. coli (E. coli; [12]) | ε-polylysine concentration at which L ≥ 0 was attained, E. coli (E. coli; [18])
